# Laboratory results taken from US20190124918A1, “BIOFILM FORMATION INHIBITOR AND BIOFILM FORMATION INHIBITING COMPOSITION” (KAO CORPORATION, priority 2016, published 2019).
# What was measured:
# Type in all cases: cell-based
# [1] = tested on: cooling water taken from a water cooling tower; test: Aqueous system model (annular reactor): number of bacterial cells in water at inlet and outlet (R2A agar); conditions: Test Example 4; 15 ppm in cooling water; solvent control also about 10^4
# Method: (§1) Biofilm formation inhibitory activity of p-toluquinone (Tokyo Kasei) was evaluated by an aqueous system model using an annular reactor (Art Science Co., Ltd.) having a 100 mL-volume culture tank. In the culture tank of the annular reactor, a cylindrical rotating body rotating at a speed of 160 rounds per minute was installed. To the rotating body, 12 test pieces were attached in advance. These test pieces were taken out at predetermined time intervals and biofilm formed on the test pieces was quantified. From a water cooling tower provided on a building rooftop and actually used, cooling water was taken and supplied to the annular reactor culture vessel (maintained at 30° C.) at a flow rate of 10 mL per minute; at the same time, an ethanol solution (15 g/L) of p-toluquinone was separately supplied to the annular reactor culture vessel by a syringe pump YSP-201 (manufactured by YMC) at a flow rate of 10 μL per minute (p-toluquinone concentration in cooling water in the culture tank was 15 ppm). The test pieces (n=2) taken out from the culture tank at predetermined time intervals were stained with 0.1% crystal violet, thoroughly washed twice with physiological saline and recovered in ethanol (15 mL). The absorbance (OD570) was measured to obtain the amount of the biofilm formed. […] Thereafter, the number of bacteria cells was measured. […]
# [2] = tested on: Pseudomonas PAO1 strain (ATCC 15692); test: Amount of biofilm formed (crystal violet, OD570), 96-well microplate culture
# In short: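 PAO1 suspension in Mueller Hinton Broth (OD600 1/10^6) grown stationary 24 h at 30 °C with compounds dried from ethanol plus DMSO, final about 7–333 ppm or as listed. Biofilm stained with 0.1% crystal violet, ethanol-eluted, OD570; inhibition % = {1−(compound OD570/ethanol-control OD570)}×100.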
# [3] = tested on: cooling water taken from a water cooling tower; test: Aqueous system model (annular reactor): amount of biofilm formed on test pieces (OD570); conditions: Test Example 4; 15 ppm in cooling water, 30° C.; solvent control finally beyond 0.7
# Method: as §1
# [4] = tested on: biofilm-forming microbe isolated from cooling water taken from a water cooling tower; test: Biofilm inhibition test, quinone-based compound and chelating agent (OD570)
# Method: A biofilm-forming microbe (microbe showing a OD570 value of 0.3 or more in the test for determining the amount of biofilm (the following section 2-4)) isolated from cooling water taken from a water cooling tower was cultured in R2A culture medium at 30° C. for 16 hours while shaking. The turbidity (OD600) of the resultant culture solution was measured. The culture solution was diluted with R2A culture medium to prepare a suspension of 10^3 cfu/mL.
# Predetermined amounts of p-toluquinone and HEDP were weighed and solvent (MDG) was added to prepare a composition. Since citric acid and EDTA were not dissolved in MDG, they were directly added in culture solutions; at the same time, p-toluquinone was directly added to the culture solutions.
# The suspension of a test microbe prepared in the above section 2-1) was added in individual wells of a 96 well microplate in an amount of 150 μL, and then, the test solutions prepared in the above section 2-2) was each added and culture was initiated.
# After the 96 well microplate was subjected to stationary culture performed at 30° C. for 48 hours, the culture solution was removed and the resultant microplate was washed with water. Subsequently, each well was stained with 0.1% crystal violet and 200 μL of ethanol was added. The absorbance (OD570) was measured to obtain the amount of biofilm (BF) formed.
compound,measurement,setting,value
"CC1=CC(=O)C=CC1=O [Compound a, p-Toluquinone]",number of bacterial cells at the inlet or outlet of the reactor,[1],about 10^4 cells/mL
same,The amount of the biofilm formed OD570,"[2]; final concentration 7 ppm, EtOH control 0.9163",0.7549
same,BF inhibition (%),[2]; final concentration 17 ppm,18.6%
same,The amount of the biofilm formed OD570,"[2]; final concentration 20 ppm, EtOH control 0.9564",0.8231
same,BF inhibition (%),[2]; final concentration 33 ppm,36.6%
same,The amount of the biofilm formed OD570,"[2]; final concentration 33 ppm, EtOH control 0.8974",0.7891
same,BF inhibition (%),[2]; final concentration 66 ppm,39.9%
same,The amount of the biofilm formed OD570,"[2]; final concentration 67 ppm, EtOH control 0.8853",0.7094
same,BF inhibition (%),[2]; final concentration 99 ppm,73.7%
same,BF inhibition (%),[2]; final concentration 116 ppm,86.3%
same,BF inhibition (%),[2]; final concentration 132 ppm,85.1%
same,The amount of the biofilm formed OD570,"[2]; final concentration 200 ppm, EtOH control 0.9248",0.7089
same,The amount of the biofilm formed OD570,"[2]; final concentration 333 ppm, EtOH control 0.9562",0.1222
same,biofilm formation (in words),[2]; high concentration range of 200 ppm or more,inhibited
same,biofilm formation (in words),[2]; low concentration range of less than 200 ppm,inhibited
same,amount of the biofilm formed (OD570),[3],≤ 0.2
same,BF inhibitory effect of combined use of HEDP and p-toluquinone compared with p-toluquinone alone,[4]; Experiment No. 2 compared to Nos. 5 to 8,higher
same,OD570,"[4]; Experiment No. 12: Toluquinone 5 ppm, Citric acid 0 ppm, 0 ppm/0 ppm gave 0.329",0.236
same,BF inhibitory effect of combined use of citric acid and p-toluquinone compared with p-toluquinone alone,[4]; Experiment No. 12 compared to Nos. 15 to 18,higher
same,OD570,"[4]; Experiment No. 13: Toluquinone 10 ppm, Citric acid 0 ppm, 0 ppm/0 ppm gave 0.329",0.048
same,OD570,"[4]; Experiment No. 14: Toluquinone 20 ppm, Citric acid 0 ppm, 0 ppm/0 ppm gave 0.329",0.051
same,OD570,"[4]; Experiment No. 15: Toluquinone 5 ppm, Citric acid 0.5 ppm, 0 ppm/0 ppm gave 0.329",0.057
same,OD570,"[4]; Experiment No. 16: Toluquinone 5 ppm, Citric acid 2.5 ppm, 0 ppm/0 ppm gave 0.329",0.054
same,OD570,"[4]; Experiment No. 17: Toluquinone 5 ppm, Citric acid 5 ppm, 0 ppm/0 ppm gave 0.329",0.054
same,OD570,"[4]; Experiment No. 18: Toluquinone 5 ppm, Citric acid 10 ppm, 0 ppm/0 ppm gave 0.329",0.053
same,OD570,"[4]; Experiment No. 21: Tuluquinone 5 ppm, EDTA 0 ppm, 0 ppm/0 ppm gave 0.407",0.358
same,BF inhibitory effect of combined use of EDTA and p-toluquinone compared with p-toluquinone alone,[4]; Experiment No. 21 compared to Nos. 24 to 26,higher
same,OD570,"[4]; Experiment No. 22: Tuluquinone 10 ppm, EDTA 0 ppm, 0 ppm/0 ppm gave 0.407",0.048
same,OD570,"[4]; Experiment No. 23: Tuluquinone 20 ppm, EDTA 0 ppm, 0 ppm/0 ppm gave 0.407",0.051
same,OD570,"[4]; Experiment No. 24: Tuluquinone 5 ppm, EDTA 2.5 ppm, 0 ppm/0 ppm gave 0.407",0.151
same,OD570,"[4]; Experiment No. 25: Tuluquinone 5 ppm, EDTA 5 ppm, 0 ppm/0 ppm gave 0.407",0.077
same,OD570,"[4]; Experiment No. 26: Tuluquinone 5 ppm, EDTA 10 ppm, 0 ppm/0 ppm gave 0.407",0.078
